In this assay the target is TRIP8b-HCN1c40 (Homo sapiens (Human), UniProt Q8IYB4). As to the kind of experiment: TRIP8b-HCN1c40 AlphaScreen assay. The format is binding. Here is the method: AlphaScreen Assay. 20 nM ofGST-tagged HCNlc40 protein (corresponding to the C terminal 40 amino acids of HCN1) was incubated with 200 nM of His-tagged TRIP8b(241-602) and varying concentrations of the test compound as described in our prior report (Han et al., 2015). After a 3 h incubation, anti-GST AlphaScreen acceptor beads were added for 1.5 h followed by AlphaScreen nickel chelate donor beads for 1.5 h. AlphaScreen signal was quantified using a PerkinElmer (Waltham, MA) EnSpire multimode plate reader.

Where [1] appears, read: activity ranges, read-out: TRIP8b-HCN1c40 Alphascreen IC50 activity.
Setting [2] is: read-out: TRIP8b-HCN1c40 Alphascreen IC50.

Molecules are shown by their SMILES. Read-outs that look alike come from different tables or passages of the source.

As usually defined, the IC50 is the point on the concentration scale where inhibition reaches its midpoint.

Sequence of TRIP8b-HCN1c40 (Q8IYB4 265-626): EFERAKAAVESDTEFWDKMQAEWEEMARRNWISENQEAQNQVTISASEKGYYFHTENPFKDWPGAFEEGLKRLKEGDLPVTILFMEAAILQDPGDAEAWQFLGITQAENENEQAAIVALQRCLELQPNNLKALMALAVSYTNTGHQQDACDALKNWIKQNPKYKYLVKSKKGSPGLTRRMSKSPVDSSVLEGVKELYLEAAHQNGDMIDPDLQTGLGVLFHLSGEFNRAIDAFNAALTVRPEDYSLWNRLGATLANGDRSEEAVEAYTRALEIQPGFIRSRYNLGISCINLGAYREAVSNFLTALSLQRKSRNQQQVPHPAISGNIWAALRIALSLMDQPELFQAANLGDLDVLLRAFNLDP

Take `Cc1ccc(-c2ccc(CN3CCN(C)CC3)c(OCC(=O)NCc3ccc(Cl)cc3)c2)cc1` [NUCC-0202011]: the IC50 under setting [1] fell in the range of 1 to 2 µM and the concentration for half-maximal inhibition (IC50) under setting [2] is 1.5 µM. For `Cc1ccc(-c2ccc(OCC(=O)NCc3ccc(Cl)cc3)c(CN3CCNCC3)c2)cc1` [NUCC-0201614] the same measures were 5 to 10 µM and 7.2 µM. For `CN1CCN(Cc2ccc(-c3ccc(Cl)c(Cl)c3)cc2OCC(=O)NCc2ccc(Cl)cc2)CC1` [NUCC-0202008] the same measures were 1 to 2 µM and 1.2 µM. With `CC(Oc1ccc(-c2ccc(O)cc2)cc1CN1CCN(C)CC1)C(=O)NCc1ccc(Cl)cc1` (stereo not drawn) [NUCC-0202030], the half-inhibitory concentration (IC50) reads like this: under setting [1], 10 to 20 µM; under setting [2], 14 µM. For the compound `CC(Oc1ccc(-c2ccc(Cl)cc2)cc1CN1CCN(C)CC1)C(=O)NCc1ccc(Cl)cc1` (stereo not drawn) [NUCC-0202025], the IC50 runs as follows: under setting [1], 1 to 2 µM; under setting [2], 1.5 µM. In the case of `CN1CCN(Cc2cc(-c3ccc(Cl)c(Cl)c3)ccc2OCC(=O)NCc2ccc([N+](=O)[O-])cc2)CC1` [NUCC-0201985], the IC50 was 2 to 5 µM under setting [1] and 2.5 µM under setting [2].

For the compound `Cc1ccc(NC(=O)COc2ccc(-c3ccc(Cl)c(Cl)c3)cc2CN2CCN(C)CC2)cc1` [NUCC-0202018], the IC50 is, setting by setting: under setting [1], 1 to 2 µM; under setting [2], 1 µM. As for `COc1ncc(-c2ccc(OCC(=O)NCc3ccc(Cl)cc3)c(CN3CCN(C)CC3)c2)c(OC)n1` [NUCC-0201189], the IC50 under setting [2] is 92 µM. As to `Cc1cccc(-c2ccc(OCC(=O)Nc3cc(O)c(O)c(O)c3)c(CN3CC[C@H](N)C3)c2)c1` [NUCC-0201628], the IC50 under setting [1] was 5 to 10 µM and the IC50 under setting [2] was 7.8 µM. For `CN1CCN(Cc2cc(-c3cc(Cl)cc(Cl)c3)ccc2OCC(=O)NCc2ccc(Cl)c(Cl)c2)CC1` [NUCC-0201979] the same measures were under 1 µM and under 0.74 µM.

On to `CN1CCN(Cc2cc(-c3cccnc3)ccc2OCC(=O)Nc2ccc(Cl)c(Cl)c2)CC1` [NUCC-0202005], for which the IC50 is, setting by setting: under setting [1], 5 to 10 µM; under setting [2], 5.5 µM. As to `CN1CCN(Cc2cc(-c3ccc(Cl)c(Cl)c3)ccc2OCC(=O)NCc2ccccc2)CC1` [NUCC-0201987], the IC50 is 2 to 5 µM under setting [1] and 2.5 µM under setting [2]. With `CN1CCN(Cc2cc(-c3ccc(F)cc3)ccc2OCC(=O)NCCN2CCCCC2)CC1` [NUCC-0201230], the IC50 under setting [2] was over 200 µM. On to `CN1CCN(Cc2cc(-c3ccccc3)ccc2OCC(=O)Nc2ccc(Cl)c(Cl)c2)CC1` [NUCC-0202004], for which the concentration for half-maximal inhibition (IC50) reads like this: under setting [1], under 1 µM; under setting [2], 0.89 µM. For `Cc1ccc(-c2ccc(OCC(=O)NCc3ccc(S(N)(=O)=O)cc3)c(CN3CCCN(C)CC3)c2)cc1` [NUCC-0201597], under setting [2], the IC50 was over 40 µM.

Turning to `CN1CCN(Cc2cc(-c3cccc(Cl)c3)ccc2OCC(=O)Nc2ccc(Cl)c(Cl)c2)CC1` [NUCC-0201998], the IC50 by setting is: under setting [1], under 1 µM; under setting [2], under 0.74 µM. Take `Cc1ccc([C@@H](C)NC(=O)C(C)Oc2ccc(-c3ccc(Cl)cc3)cc2CN2CCN(C)CC2)cc1` (stereo partly drawn) [NUCC-0202046]: the IC50 by setting is: under setting [1], under 1 µM; under setting [2], 0.84 µM. On to `CN1CCN(Cc2cc(OC(F)(F)F)ccc2OCC(=O)NCc2ccc(Cl)cc2)CC1` [NUCC-0201228], for which the half-inhibitory concentration (IC50) under setting [2] was found to be 160 µM.

`COc1cc(NC(=O)COc2ccc(-c3cccc(C)c3)cc2CN2CC[C@H](N)C2)cc(OC)c1OC` [NUCC-0201620]: the IC50 under setting [1] is 10 to 20 µM and the IC50 under setting [2] was 13 µM. With `CN1CCN(Cc2cc(-c3ccc(Cl)c(Cl)c3)ccc2OCC(=O)N2CCc3ccccc32)CC1` [NUCC-0201980], the IC50 under setting [1] lay in the range of 1 to 2 µM and the IC50 under setting [2] was 1.2 µM. For `CN1CCN(Cc2cc(-c3ccc(N)cc3)ccc2OCC(=O)NCc2ccc(Cl)cc2)CC1` [NUCC-0202053] the same measures were 10 to 20 µM and 18 µM. Take `CN1CCN(Cc2cc(-c3ccc(F)cc3)ccc2OCC(=O)N(C)Cc2ccccc2)CC1` [NUCC-0201102]: the IC50 under setting [2] stood at 91 µM. Regarding `CN1CCN(Cc2cc(-c3ccc(Cl)c(Cl)c3)ccc2OCC(=O)N2CCc3cc(Cl)ccc32)CC1` [NUCC-0201981], the IC50 was under 1 µM under setting [1] and under 0.74 µM under setting [2]. `COc1ccc(NC(=O)COc2ccc(-c3ccc(Cl)c(Cl)c3)cc2CN2CCN(C)CC2)cc1` [NUCC-0202019]: the IC50 under setting [1] lay within 1 to 2 µM and the IC50 under setting [2] turned out to be 1.3 µM. As to `CN1CCN(Cc2cc(-c3ccc(Cl)cc3)ccc2OCC(=O)Nc2ccc(Cl)c(Cl)c2)CC1` [NUCC-0201999], the IC50 was under 1 µM under setting [1] and under 0.74 µM under setting [2]. As for `CN1CCN(Cc2cc(Oc3ccc(F)cc3)ccc2OCC(=O)NCc2ccc(Cl)cc2)CC1` [NUCC-0201229], the IC50 was 5 to 10 µM under setting [1] and 7.1 µM under setting [2]. As to `CC(C)c1ccc(-c2ccc(OCC(=O)NCc3ccc(Cl)cc3)c(CN3CCNCC3)c2)cc1` [NUCC-0201616], the IC50 is, setting by setting: under setting [1], 5 to 10 µM; under setting [2], 5.7 µM. `CN1CCN(Cc2cc(-c3ccc(Cl)cc3)ccc2OCC(=O)NCc2ccc(Cl)c(Cl)c2)CC1` [NUCC-0201977]: the half-inhibitory concentration (IC50) under setting [1] is under 1 µM and the IC50 under setting [2] is 0.87 µM. Consider `CN1CCN(Cc2ccc(-c3ccc(F)c(C(F)(F)F)c3)cc2OCC(=O)NCc2ccc(Cl)cc2)CC1` [NUCC-0202013], for which the concentration for half-maximal inhibition (IC50) was 1 to 2 µM under setting [1] and 1.4 µM under setting [2]. Regarding `CN1CCN(Cc2ccc(-c3ccc(Cl)cc3)cc2OCC(=O)NCc2ccc(Cl)cc2)CC1` [NUCC-0202009], the 50% inhibitory concentration (IC50) under setting [1] lay within 1 to 2 µM and the IC50 under setting [2] was 1 µM. On to `CN1CCN(Cc2cc(-c3ccc4c(c3)OCCO4)ccc2OCC(=O)Nc2ccc(Cl)c(Cl)c2)CC1` [NUCC-0202021], for which the IC50 was 1 to 2 µM under setting [1] and 1.4 µM under setting [2].

Take `CN1CCN(Cc2cc(-c3ccc(Cl)cc3Cl)ccc2OCC(=O)Nc2ccc(Cl)c(Cl)c2)CC1` [NUCC-0202001]: the IC50 under setting [1] is under 1 µM and the IC50 under setting [2] is under 0.74 µM. As for `CN1CCN(Cc2cc(-c3ccc(CCl)cc3)ccc2OCC(=O)NCc2ccc(Cl)c(Cl)c2)CC1` [NUCC-0201971], the IC50 under setting [1] fell in the range of 5 to 10 µM and the IC50 under setting [2] was found to be 6.6 µM. As for `Cc1ccc(-c2ccc(OCC(=O)NCc3cccc(Cl)c3)c(CN3CCC(N(C)C)CC3)c2)cc1` [NUCC-0201610], the IC50 was 2 to 5 µM under setting [1] and 5 µM under setting [2].

Consider `CN1CCN(Cc2cc(-c3ccc(Cl)c(Cl)c3)ccc2OCC(=O)NCc2ccccc2Cl)CC1` [NUCC-0201983], for which the IC50 is, setting by setting: under setting [1], under 1 µM; under setting [2], 0.91 µM. For the compound `CSc1ccc(-c2ccc(OCC(=O)NCc3ccc(Cl)cc3)c(CN3CCN(C)CC3)c2)cc1` [NUCC-0201710], the IC50 was 2 to 5 µM under setting [1] and 2.9 µM under setting [2].

Regarding `CN1CCN(Cc2cc(-c3cc(C(F)(F)F)cnc3Cl)ccc2OCC(=O)Nc2ccc(Cl)c(Cl)c2)CC1` [NUCC-0202007], the IC50 is 2 to 5 µM under setting [1] and 4.6 µM under setting [2].

As for `CN1CCN(Cc2cc(-c3ccc(Cl)c(Cl)c3)ccc2OCC(=O)Nc2ccc(Cl)cc2)CC1` [NUCC-0202016], the IC50 by setting is: under setting [1], under 1 µM; under setting [2], 0.78 µM. On to `CN1CCN(Cc2cc(-c3ccc(Cl)c(Cl)c3)ccc2OCC(=O)NC2CCc3ccccc32)CC1` (stereo not drawn) [NUCC-0201988], for which the IC50 was 1 to 2 µM under setting [1] and 1.4 µM under setting [2]. Consider `CCN(CC)C(=O)COc1ccc(-c2ccc(F)cc2)cc1CN1CCN(C)CC1` [NUCC-0201100], for which the IC50 under setting [2] is 150 µM. As to `Cc1ccc(-c2ccc(OCC(=O)Nc3ccc4c(c3)OCO4)c(CN3CCCN(C)CC3)c2)cc1` [NUCC-0201600], the IC50 by setting is: under setting [1], 5 to 10 µM; under setting [2], 9.2 µM. For `COc1ccc(NC(=O)COc2ccc(-c3cccc(C)c3)cc2CN2CC[C@H](N)C2)cn1` [NUCC-0201619] the same measures were 20 to 40 µM and 24 µM. Take `CC(Oc1ccc(-c2ccc([N+](=O)[O-])cc2)cc1CN1CCN(C)CC1)C(=O)NCc1ccc(Cl)cc1` (stereo not drawn) [NUCC-0202034]: the 50% inhibitory concentration (IC50) was 2 to 5 µM under setting [1] and 2.7 µM under setting [2]. Take `CN1CCN(Cc2cc(-c3ccc(C(F)(F)F)cc3)ccc2OCC(=O)NCc2ccc(Cl)cc2)CC1` [NUCC-0201711]: the IC50 was 2 to 5 µM under setting [1] and 3.9 µM under setting [2].

Turning to `CN1CCN(Cc2cc(-c3ccc(Cl)c(C(F)(F)F)c3)ccc2OCC(=O)Nc2ccc(Cl)c(Cl)c2)CC1` [NUCC-0202023], the IC50 reads like this: under setting [1], 1 to 2 µM; under setting [2], 1.3 µM. For the compound `O=Cc1cc(-c2ccc(F)cc2)ccc1O` [NUCC-0201191], the IC50 under setting [2] stood at 58 µM. For the compound `CN1CCN(Cc2cc(-c3ccc(Cl)cc3)ccc2OCC(=O)NCc2ccc(Cl)cc2)CC1` [NUCC-0201712], the IC50 was 2 to 5 µM under setting [1] and 3 µM under setting [2]. Take `Cc1cccc(-c2ccc(OCC(=O)Nc3ccc(Cl)c(Cl)c3)c(CN3CCN(C)CC3)c2)c1` [NUCC-0202000]: the IC50 under setting [1] is under 1 µM and the IC50 under setting [2] was 0.76 µM.

For the compound `COc1ccc([C@H](C)NC(=O)COc2ccc(-c3ccc(C)cc3)cc2CN2CCC(N(C)C)CC2)cc1` [NUCC-0201611], under setting [2], the IC50 was over 40 µM. `CC(C)(C)c1ccc(-c2ccc(OCC(=O)NCc3ccc(Cl)cc3)c(CN3CCNCC3)c2)cc1` [NUCC-0201615]: the IC50 is 5 to 10 µM under setting [1] and 6.3 µM under setting [2].

Consider `CN1CCN(Cc2cc(-c3ccccc3Cl)ccc2OCC(=O)Nc2ccc(Cl)c(Cl)c2)CC1` [NUCC-0201997], for which the IC50 runs as follows: under setting [1], under 1 µM; under setting [2], under 0.74 µM.

For the compound `CN1CCN(Cc2cc(-c3ccc(F)cc3)ccc2OCC(=O)NC2CC2)CC1` [NUCC-0201101], the half-inhibitory concentration (IC50) under setting [2] came to 110 µM.

As for `CN1CCN(Cc2cc(-c3ccc(CO)cc3)ccc2OCC(=O)Nc2ccc(Cl)c(Cl)c2)CC1` [NUCC-0202024], the 50% inhibitory concentration (IC50) by setting is: under setting [1], 2 to 5 µM; under setting [2], 3.2 µM.

`Cc1cccc(-c2ccc(OCC(=O)Nc3ccc(Cl)c(Cl)c3)c(CN3CC[C@H](N)C3)c2)c1` [NUCC-0201621]: the IC50 is 1 to 2 µM under setting [1] and 1.3 µM under setting [2].

These data come from US20230391714A1, “INHIBITORS OF THE INTERACTION BETWEEN TRIP8B AND HCN CHANNELS AND USES THEREOF FOR TREATING NEUROLOGICAL DISEASES AND DISORDERS” (Northwestern University, priority 2022, published 2023).
